# Experimental data: ChEMBL document CHEMBL5038569, “Targeting RECQL5 Functions, by a Small Molecule, Selectively Kills Breast Cancer in Vitro and in Vivo” (J Med Chem, 2021)
# The source made the active and inactive calls. No cut-off for these calls is given here.
# Columns and labels:
# [1] = test system: MCF7; assay: Stabilization of RECQL5-RAD51 complex in RECQL5 knock out human MCF7 cells expressing wild type RECQL5-FLAG assessed as increase in RAD51-RECQL5-FLAG pull down at 20 uM measured after 8 hrs by coimmunoprecipitation assay; type: cell-based
# [2] = test system: MCF7; assay: Inhibition of homologous recombinant repair in human MCF7 cells expressing RECQL5 wildtype/ SceGFP/iGFP mutants assessed as I-SceI induced generation of resected double stand breaks by measuring GFP-expressing cells at 10 uM measured after 48 hrs by flow cytometry analysis; type: functional, cell-based
# [3] = test system: MCF7; assay: Cytotoxicity against RECQL5 knock out human MCF7 cells expressing […] assessed as reduction in colony formation at 10 uM measured after 8 to 10 days by clonogenic survival assay; type: functional, cell-based; conditions: time 8-10 day
# [4] = Toxicity in nude mouse xenografted with human MCF7 cells assessed as body weight loss at 50 mg/kg, po administered via oral gavage for 30 days and measured every 5 days; type: organism-based; conditions: in vivo, 720 h, time 30 day
# [5] = test system: MCF7; assay: Induction of apoptosis in RECQL5 knock out human MCF7 cells assessed as increase in sub-G1 cell population measured after 72 hrs by propidium iodide/RNase A staining based flow cytometric analysis; type: functional; conditions: dose 2.5-20 µM
# [6] = test system: MCF7; assay: Effect on homologous recombinant repair in RECQL5 knock out human MCF7 cells assessed as accumulation of NBS1 protein on chromatin at 20 uM incubated for 4 to 24 hrs by Western blot analysis; type: functional, cell-based; conditions: time 4-24 hrs
# [7] = test system: MCF7; assay: Effect on homologous recombinant repair in RECQL5 knock out human MCF7 cells assessed as accumulation of MRE11 protein on chromatin at 20 uM incubated for 4 to 24 hrs by Western blot analysis; type: functional, cell-based; conditions: time 4-24 hrs
# [8] = Inhibition of full length His-tagged human RECQL5 expressed in Escherichia coli incubated for 15 mins by fluorescence based assay
# [9] = test system: MCF7; assay: Cytotoxicity against human MCF7 cells with shRNA-mediated BLM depletion assessed as reduction in cell viability at 6 to 25 uM measured after 8 to 10 days by clonogenic survival assay; type: functional, cell-based; conditions: dose 6-25 µM, time 8-10 day
# [10] = Toxicity in […] mouse assessed as fold change in SGPT level at 100 mg/kg, po administered as single dose via gavage measured after 30 days relative to control; type: organism-based; conditions: in vivo, 720 h, time 30 day
# [11] = Toxicity in nude mouse xenografted with human MCF7 cells assessed as morphological changes in kidney at 50 mg/kg, po administered via oral gavage and measured after 30 days; type: organism-based; conditions: in vivo, 720 h, time 30 day
# [12] = test system: MCF7; assay: Induction of mitotic catastrophe phenotype in human MCF7 cells assessed as nuclear bridge formation at 20 uM pretreated with cisplatin for 8 hrs followed by compound addition and measured after 24 hrs by immunofluorescence microscopic analysis; type: functional, cell-based
# [13] = Chronic toxicity in […] mouse assessed as effect on food/water uptake at 100 mg/kg, po administered as single dose via gavage measured for 30 days; type: organism-based; conditions: in vivo, 720 h, time 30 day
# [14] = test system: MCF7; assay: Cytotoxicity against human MCF7 cells with shRNA-mediated RECQL1 depletion assessed as reduction in cell viability at 6 to 25 uM measured after 8 to 10 days by clonogenic survival assay; type: functional, cell-based; conditions: dose 6-25 µM, time 8-10 day
# [15] = test system: MCF7; assay: Stabilization of RECQL5-RAD51 complex in human MCF7 cells expressing wild type RECQL5 assessed as increase in accumulation of chromatin-bound RECQL5 and RAD51 at 20 uM measured after 4 to 24 hrs by Western blot analysis; type: cell-based; conditions: time 4-24 hrs, TDE = time-dependent effect
# [16] = test system: T47D; assay: Stabilization of RECQL5-RAD51 complex in RECQL5 knock out human T47D cells expressing wild type RECQL5-FLAG assessed as increase in RAD51-RECQL5-FLAG pull down at 20 uM measured after 8 hrs by coimmunoprecipitation assay; type: cell-based
# [17] = Inhibition of ds-DNA dependent human RECQL5 ATPase activity measured after 60 mins by luciferin-based multiplate reader method
# [18] = Toxicity in […] mouse assessed as fold change in alkaline phosphatase level at 100 mg/kg, po administered as single dose via gavage measured after 30 days relative to control; type: organism-based; conditions: in vivo, 720 h, time 30 day
# [19] = test system: MCF7; assay: Induction of cell sensitization to cisplatin in human MCF-7 cells assessed as reduction in colony formation at 5 uM measured after 8 to 10 days by clonogenic survival assay; type: functional, cell-based; conditions: time 8-10 day
# [20] = test system: MCF7; assay: Cytotoxicity against human MCF7 cells expressing wild type RECQL5 assessed as cell growth inhibition measured after 72 hrs by MTT assay; type: functional; conditions: dose 6-50 µM
# [21] = test system: MCF7; assay: Reversal of RECQL5 knock out resistance phenotype in human MCF7 cells expressing RECQL5-RFP assessed as reduction in cell viability at 6 to 25 uM measured after 72 hrs by MTT assay; type: functional, cell-based; conditions: dose 6-25 µM
# [22] = molecular target: T1, DNA repair protein RAD51 homolog 1 (Homo sapiens) (UniProt Q06609); assay: Stabilization of RAD51 foci in human cisplatin-resistant MCF7 cells assessed as increase in RAD51 positive cells at 20 uM pretreated with cisplatin for 8 hrs followed by compound addition and measured after 24 hrs by immunofluorescence microscopic analysis; type: cell-based
# T1 sequence (whole entry): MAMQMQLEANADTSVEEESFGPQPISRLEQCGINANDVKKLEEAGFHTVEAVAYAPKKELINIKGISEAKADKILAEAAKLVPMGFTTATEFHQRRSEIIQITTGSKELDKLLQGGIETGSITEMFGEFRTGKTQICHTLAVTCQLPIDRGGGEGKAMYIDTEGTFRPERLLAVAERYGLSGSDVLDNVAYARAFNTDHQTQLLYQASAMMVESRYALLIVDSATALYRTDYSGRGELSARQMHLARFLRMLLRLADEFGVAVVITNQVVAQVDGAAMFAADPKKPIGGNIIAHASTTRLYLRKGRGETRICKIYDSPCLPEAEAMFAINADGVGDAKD
# [23] = test system: MCF7; assay: Cytotoxicity against human MCF7 cells with shRNA-mediated RECQL5 depletion assessed as reduction in cell viability at 6 to 25 uM measured after 8 to 10 days by clonogenic survival assay; type: functional, cell-based; conditions: dose 6-25 µM, time 8-10 day
# [24] = species: Homo sapiens; assay: Inhibition of His-tagged human RECQL5 binding to [gamma 32P] labeled DNA substrate assessed as RECQL5-DNA complex formation at 10 uM preincubated for 30 mins followed by substrate addition and measured after 15 mins by gel electrophoresis and autoradiography method; conditions: time 45.0 min
# [25] = test system: MCF7; assay: Antitumor activity against RECQL5 knock out human MCF7 cells xenografted in nude mouse assessed as reduction in tumor growth at 50 mg/kg, po administered as single dose via gavage measured after 30 days; type: functional, organism-based; conditions: time 30.0 day
# [26] = test system: MCF7; assay: Effect on homologous recombinant repair in human MCF7 cells expressing wild type RECQL5 assessed as accumulation of NBS1 protein on chromatin at 20 uM incubated for 4 to 24 hrs by Western blot analysis; type: functional, cell-based; conditions: time 4-24 hrs, TDE = time-dependent effect
# [27] = Chronic toxicity in […] mouse assessed as change in behavior at 100 mg/kg, po administered as single dose via gavage measured for 30 days; type: organism-based; conditions: in vivo, 720 h, time 30 day
# [28] = test system: MDA-MB-231; assay: Cytotoxicity against ER/PR/HER2-negative human MDA-MB-231 cells expressing wild type RECQL5 and p53 mutant assessed as reduction in colony formation measured after 8 to 10 days by clonogenic survival assay; type: functional, cell-based; conditions: time 8-10 day
smiles,measurement,setting,value
O=C(Nc1cc(C(F)(F)F)cc(C(F)(F)F)c1)N[C@@H](c1ccccc1)c1nnc(SCc2ccccc2)o1,Activity,[1],Active
same,inhibition,[2],Active
same,Activity,[3],inactive
same,Activity,[4],Non-Toxic
same,Activity,[5],Dose-Dependent Effect
same,Activity,[6],inactive
same,Activity,[7],inactive
same,IC50,[8],0.0463 µM
same,Activity,[9],Active
same,fold change (FC),[10],0.92
same,Activity,[11],Non-Toxic
same,Activity,[12],Active
same,Activity,[13],Non-Toxic
same,Activity,[14],Active
same,Activity,[15],Tde
same,Activity,[16],Active
same,IC50,[17],23.9 µM
same,fold change (FC),[18],0.97
same,Activity,[19],Active
same,IC20,[20],8.2 µM
same,Activity,[21],Active
same,Activity,[22],Active
same,Activity,[23],inactive
same,inhibition,[24],inactive
same,Activity,[25],inactive
same,Activity,[26],Tde
same,Activity,[27],Non-Toxic
same,Activity,[28],Active
